Measurements published in ChEMBL document CHEMBL5352384, “Identification of new FK866 analogues with potent anticancer activity against pancreatic cancer” (Eur J Med Chem, 2022).
Activity calls are given as the source filed them. The rule behind the calls is not given here.

Assays:
[1] = test system: Jurkat; experiment: Antiproliferative activity against human Jurkat cells assessed as inhibition of cell growth measured after 72 hrs by XTT assay; assay type: functional, cell-based
[2] = test system: BXPC-3; experiment: Antiproliferative activity against human BXPC-3 cells assessed as inhibition of cell growth measured after 72 hrs by XTT assay; assay type: functional, cell-based; conditions: BXPC-3, 72 h
[3] = test system: MIA PaCa-2; experiment: Antiproliferative activity against human MIA PaCa-2 cells assessed as inhibition of cell growth measured after 72 hrs by XTT assay; assay type: functional, cell-based; conditions: MIA PaCa-2, 72 h
[4] = test system: PANC-1; experiment: Antiproliferative activity against human PANC-1 cells assessed as inhibition of cell growth measured after 72 hrs by XTT assay; assay type: functional, cell-based; conditions: PANC-1, 72 h
[5] = test system: Jurkat; experiment: Induction of apoptosis in human Jurkat cells assessed as cell death at upto 1000 nM measured after 96 hrs by annexin V and 7AAD double staining based flow cytometry analysis; assay type: functional
[6] = test system: Jurkat; experiment: Antiproliferative activity against human Jurkat cells assessed as reduction in cell viability at 10 nM incubated for 96 hrs in presence of NAD+ by annexin V and 7AAD double staining based flow cytometry analysis; assay type: functional
[7] = test system: Jurkat; experiment: Antiproliferative activity against human Jurkat cells assessed as reduction in cell viability at 10 nM incubated for 96 hrs in presence of NMN by annexin V and 7AAD double staining based flow cytometry analysis; assay type: functional
[8] = test system: Jurkat; experiment: Induction of apoptosis in human Jurkat cells assessed as caspase-3 cleavage at 10 nM measured after 96 hrs by flow cytometry analysis; assay type: functional, cell-based
[9] = test system: PANC-1; experiment: Cytotoxicity against human PANC-1 cells assessed as reduction in cell viability measured after 72 hrs by resazurin staining based fluorescent plate reader; assay type: functional; conditions: PANC-1, 72 h

Row | SMILES | IC50 [1] | IC50 [3] | also measured
1 | O=C(/C=C/c1cccnc1)NCCCCC1CCN(C(=O)C2CCCO2)CC1 (centres undefined) | 30 nM |  | 
2 | O=C(/C=C/c1cccnc1)NC/C=C/CC1CCN(C(=O)c2ccccc2)CC1 | 10 nM | 13 nM | IC50 [2]: 34 nM; IC50 [4]: 8.6 nM
3 | O=C(/C=C/c1cccnc1F)NCCCCC1CCN(C(=O)c2ccccc2)CC1 | 2.3 nM | 4 nM | 
4 | COc1cc(C=O)cc(OC)c1C(=O)N1CCC(CCCCNC(=O)/C=C/c2cccnc2)CC1 | 0.4 nM | 0.25 nM | IC50 [2]: 13 nM; IC50 [4]: 1.9 nM
5 | O=C(/C=C/c1cccnc1)NCCCCC1CCN(S(=O)(=O)c2ccccc2)CC1 | 16 nM |  | 
6 | COc1cccc(OC)c1C(=O)N1CCC(CCCCNC(=O)/C=C/c2cccnc2F)CC1 | 6.5 nM | 24 nM | IC50 [4]: 5.7 nM
7 | COc1cccc(OC)c1C(=O)N1CCC(C/C=C/CNC(=O)/C=C/c2cccnc2)CC1 | 5 nM | 2.7 nM | IC50 [2]: 0.4 nM; IC50 [4]: 2.3 nM
8 | COc1cc(OC)c(C(=O)N2CCC(C/C=C/CNC(=O)/C=C/c3cccnc3)CC2)c(OC)c1 | 3 nM | 0.8 nM | IC50 [2]: 2.8 nM; IC50 [4]: 0.4 nM
9 | COc1cc(OC)c(C(=O)N2CCC(CCCCNC(=O)/C=C/c3cccnc3)CC2)c(OC)c1 | 1 nM | 0.16 nM | Activity [5]: Active; Activity [6]: inactive; IC50 [2]: 1.7 nM; Activity [7]: inactive; Activity [8]: Active; IC50 [4]: 0.9 nM
10 | CC(=O)c1cccc(C(=O)N2CCC(CCCCNC(=O)/C=C/c3cccnc3)CC2)c1 | 850 nM |  | 
11 | COc1ccc(C(=O)N2CCC(CCCCNC(=O)/C=C/c3cccnc3)CC2)cc1 | 100 nM |  | 
12 | O=C(/C=C/c1cccnc1)NCCCCC1CCN(C(=O)c2ccc([N+](=O)[O-])cc2)CC1 | 68 nM |  | 
13 | O=C(/C=C/c1cccnc1)NCCCCC1CCN(C(=O)C2CCOCC2)CC1 | 30 nM |  | 
14 | O=C(/C=C/c1cccnc1)NCCCCC1CCN(C(=O)C2CCC(=O)N2)CC1 (centres undefined) | 350 nM |  | 
15 | O=C(/C=C/c1cccnc1)NCCCCC1CCN(C(=O)c2ccc(CO)cc2)CC1 | 34 nM |  | 
16 | Cc1ccc(S(=O)(=O)N2CCC(CCCCNC(=O)/C=C/c3cccnc3)CC2)cc1 | 400 nM |  | 
17 | O=C(/C=C/c1cccnc1)NCCCCC1CCN(C(=O)C2CCCCC2)CC1 | 32 nM |  | 
18 | COc1cccc(OC)c1C(=O)N1CCC(CCCCNC(=O)/C=C/c2cccnc2)CC1 | 0.8 nM | 0.5 nM | Activity [5]: Active; Activity [6]: inactive; IC50 [2]: 0.004 nM; Activity [7]: inactive; Activity [8]: Active; IC50 [4]: 0.6 nM
19 | COc1ccc(C(=O)N2CCC(CCCCNC(=O)/C=C/c3cccnc3)CC2)cc1OC | 32 nM |  | 
20 | O=Cc1cccc(C(=O)N2CCC(CCCCNC(=O)/C=C/c3cccnc3)CC2)c1 | 40 nM |  | 
21 | O=C(/C=C/c1cccnc1)NCCCCC1CCN(C(=O)c2ccccc2)CC1 [DAPORINAD] | 0.6 nM | 2.2 nM | Activity [5]: Active; IC50 [2]: 0.3 nM; Activity [8]: Active; IC50 [4]: 0.6 nM
22 | O=C(/C=C/c1cnccn1)NCCCCC1CCN(C(=O)c2ccccc2)CC1 | > 1000 nM |  | 
23 | O=C(/C=C/c1cccnc1)NCCC1CCN(C(=O)c2ccccc2)CC1 | > 200 nM |  | 
24 | O=C(/C=C/c1cccnc1)NCCCCC1CCN(C(=O)C2CCCOC2)CC1 (centres undefined) | 35 nM |  | 
25 | O=C(/C=C/c1ccc[n+]([O-])c1)NCCCCC1CCN(C(=O)c2ccccc2)CC1 | 100 nM |  | 
26 | O=C(NCCCc1cn[nH]c1)c1ccc(-c2ccncc2)c(C#Cc2ccc(F)cc2)c1 |  |  | EC50 [9]: 3.5 nM
27 | O=C(/C=C/c1cccnc1)NCCCCC1CCN(C(=O)/C=C/c2ccccc2)CC1 | 36 nM |  | 
28 | O=C(/C=C/c1ccc(F)nc1F)NCCCCC1CCN(C(=O)c2ccccc2)CC1 | 6.7 nM | 13.5 nM | IC50 [2]: 31 nM; IC50 [4]: 14 nM

Row | SMILES | IC50 [1] | IC50 [3] | also measured
29 | O=C(/C=C/c1cccnc1)NCCCCC1CCN(C(=O)Cc2ccccc2)CC1 | 18 nM |  | 
30 | O=C(/C=C/c1cccnc1)NCCCCC1CCN(C(=O)c2ccccc2O)CC1 | 5.8 nM | 3.9 nM | IC50 [2]: 8.1 nM; IC50 [4]: 1.3 nM
31 | O=C(/C=C/c1cccnc1)NCC1OC1CC1CCN(C(=O)c2ccccc2)CC1 (centres undefined) | 2500 nM |  | 
32 | COc1cccc(OC)c1C(=O)N1CCC(CCCCNC(=O)/C=C/c2ccnnc2)CC1 | 35 nM | 25 nM | IC50 [2]: 15.6 nM
33 | COc1cccc(OC)c1C(=O)N1CCC(CCCCNC(=O)/C=C/c2cnccn2)CC1 | > 1000 nM |  | 
34 | COc1ccc(C(=O)N2CCC(CCCCNC(=O)/C=C/c3cccnc3)CC2)c(OC)c1 | 8.4 nM | 4 nM | IC50 [2]: 24 nM; IC50 [4]: 0.2 nM
35 | O=C(/C=C/c1cccnc1)NCCCOC1CCN(C(=O)c2ccccc2)CC1 | 800 nM |  | 
36 | CC(=O)c1ccc(C(=O)N2CCC(CCCCNC(=O)/C=C/c3cccnc3)CC2)cc1 | 800 nM |  | 
37 | O=C(/C=C/c1cccnc1)NCCCCC1CCN(C(=O)CCc2ccccc2)CC1 | 28 nM |  | 
38 | COc1cccc(OC)c1C(=O)N1CCC(CCCCNC(=O)/C=C/c2ccc(F)nc2F)CC1 | 73 nM | 75 nM | IC50 [4]: 2 nM
39 | COc1ccc(C(=O)N2CCC(CCCCNC(=O)/C=C/c3cccnc3)CC2)c(OC)c1OC | 28 nM |  | 
40 | O=C(/C=C/c1cccnc1)NCCCCC1CCN(C(=O)c2ccc(F)cc2)CC1 | 10 nM |  | 
41 | O=C(/C=C/c1ccc(Cl)nc1Cl)NCCCCC1CCN(C(=O)c2ccccc2)CC1 | 2500 nM |  | 
42 | O=C(/C=C/c1cccnc1Cl)NCCCCC1CCN(C(=O)c2ccccc2)CC1 | 2500 nM |  | 
43 | COc1cc(C=O)cc(OC)c1C(=O)N1CCC(CCCCNC(=O)/C=C/c2cccnc2F)CC1 | 0.8 nM | 3 nM | IC50 [2]: 53 nM; IC50 [4]: 16 nM
44 | COc1ccc(OC)c(C(=O)N2CCC(CCCCNC(=O)/C=C/c3cccnc3)CC2)c1 | 4.3 nM | 3.9 nM | IC50 [2]: 13 nM; IC50 [4]: 2.8 nM
45 | O=C(/C=C/c1cccnc1)NCC(O)CCC1CCN(C(=O)c2ccccc2)CC1 (centres undefined) | 3500 nM |  | 
46 | O=C(/C=C/c1cccnc1)NC/C=C/C1CCN(C(=O)c2ccccc2)CC1 | 100 nM |  | 
47 | O=C(/C=C/c1cccnc1)NCCCCC1CCN(C(=O)c2ccc(C(F)(F)F)cc2)CC1 | > 1000 nM |  | 
48 | O=Cc1ccc(C(=O)N2CCC(CCCCNC(=O)/C=C/c3cccnc3)CC2)cc1 | 20 nM |  | 
49 | COc1ccccc1C(=O)N1CCC(CCCCNC(=O)/C=C/c2cccnc2)CC1 | 2.3 nM | 1 nM | Activity [5]: Active; Activity [6]: inactive; IC50 [2]: 0.5 nM; Activity [7]: inactive; Activity [8]: Active; IC50 [4]: 0.08 nM
50 | COc1cccc(C(=O)N2CCC(CCCCNC(=O)/C=C/c3cccnc3)CC2)c1 | 9 nM |  | 
51 | O=C(/C=C/c1cccnc1)NCCCCC1CCN(C(=O)C2CCCCO2)CC1 (centres undefined) | 50 nM |  | 
52 | COc1cccc(OC)c1C(=O)N1CCC(OCCCNC(=O)/C=C/c2cccnc2)CC1 | 850 nM |  | 
53 | COc1cc(C(=O)N2CCC(CCCCNC(=O)/C=C/c3cccnc3)CC2)cc(OC)c1OC | 10 nM |  | 
54 | O=C(/C=C/c1ccnnc1)NCCCCC1CCN(C(=O)c2ccccc2)CC1 | 33 nM | 69 nM | IC50 [2]: 19.4 nM
55 | COc1cccc(C(=O)N2CCC(CCCCNC(=O)/C=C/c3cccnc3)CC2)c1OC | 3.6 nM | 4.5 nM | Activity [5]: Active; Activity [6]: inactive; IC50 [2]: 25 nM; Activity [7]: inactive; Activity [8]: Active; IC50 [4]: 3.2 nM
